One substance from patent US20240391978A1, “APOLIPOPROTEIN FUSION PROTEINS FOR CELL-SPECIFIC IMMUNE REGULATION” (BIO-TRIP B.V., priority 2021, published 2024) can be followed below.

Common to all, as to assay type: cell-based, human
For test [1], the system named is TNF. Put plainly: ChIP-qPCR of H3K9me3 at TNF. Particulars: IL4-induced trained immunity. Here is the method:
Chromatin immunoprecipitation: Macrophages were harvested as described above and resuspended in RPMI+++. The cells were fixed for 10 minutes in 1% methanol-free formaldehyde. The reaction was then quenched for 3 minutes by adding 125 mM glycine. The fixed cells were washed three times with ice-cold PBS and lysed at approximately 15*10^6 cells/ml in lysis buffer (20 mM HEPES pH 7.6, 1% SDS, 1× protease inhibitor cocktail (PIC; Roche)), sonicated (Bioruptor Pico, Diagenode), and centrifuged (10 minutes, 13000 rpm, RT).
Aliquots of chromatin were de-crosslinked in 0.5×TBE buffer (supplemented with 0.5 mg/ml proteinase K (Qiagen)) for 1 hour at 65° C. and run on a 1% agarose gel to confirm target fragment size of 200-800 bp.
The remaining chromatin was divided into ChIP and input samples. ChIP samples were diluted 10× in dilution buffer (16.7 mM Tris pH 8.0, 1.0% Triton, 1.2 mM EDTA, 167 mM NaCl, 1×PIC in MilliQ) and 1 μg of ChIP-grade antibody (Diagenode) was added. The samples were rotated overnight at 4° C.
Magnetic protein A/G beads (Dynabeads) were washed 2 times in dilution buffer supplemented with 0.15% SDS and 0.1% BSA. The washed beads were added to the ChIP samples and rotated at 4° C. for 1 hour. […]

Test [2] relates to Macrophages. In words: Macrophage surface marker flow cytometry. Particulars: data not shown. The text has this: Primary monocyte-derived dendritic cell (moDC) generation: For experiments were moDCs were compared to macrophages (untrained control or IL4-trained), moDCs were differentiated as follows. First, negatively selected monocytes were obtained as described above. […] The cells were differentiated until day 6, with one medium refresh on day 3. On day 6, the non-adherent cells were harvested in addition to the adherent cells (as described above). The moDCs and macrophages were then subjected to analysis by flow cytometry as described below.
Macrophage surface marker flow cytometry: Macrophages were harvested as described above and transferred to a v-bottom 96 well plate for staining. The cells were centrifuged at 1500 rpm, 5 minutes, 4° C. The supernatant was removed, and the cells were washed once with 200 μl PBA (PBS pH 7.4, 1% w/v BSA (Sigma)).
Fc-receptors were blocked by incubation in PBS supplemented with 10% human pooled serum for 15 minutes at 4° C. After washing once more, surface markers and viability were stained for in a volume of 50 μl for 30 minutes at 4° C., using the antibodies and viability dye described in table 3.
Following two washes, the cells were resuspended in 150 μl PEA and measured on a Cytoflex flow cytometer (Eeckman Coulter) or ED FACSVerse system (ED Eiosciences). Compensation was performed using VersaComp compensation beads (Eeckman Coulter) for single antibody stains; a mixture of live and heat-killed cells was used for single stains of the viability dye (as per the manufacturer's recommendations). Data analysis was performed in Flowjo (v10.7.1, ED Eiosciences) Our gating strategy was as follows: first, a time gate was used if necessary. Then, single cell events were selected using subsequent FSC-A/SSC-A and FSC-A/FSC-H gates. Dead cells were removed from the analysis by selecting the viability dye-negative population. Geometric mean fluorescence intensities were calculated as a measure of surface marker expression.
In general terms: Flow cytometry measures light scatter and fluorescence of single cells or particles in a stream.

Test [3] deals with Macrophages. In words: Phagocytosis assay. Particulars: IL4-trained cells vs untrained controls; data not shown. Here is the method: Phagocytosis assay: Macrophages were harvested as described above and incubated at 37° C. for 1 hour with FITC-labeled Candida albicans (kindly provided by Dr. Martin Jaeger, Radboudumc) at an MOI of 1:5. The cells were washed 2 times with ice-cold PBA and kept on ice to halt the phagocytosis. The cells were stained for CD45 (table 3) during 30 minutes in the dark at 4° C. Following two washes, trypan blue was added to a final concentration of 0.01% to quench extracellular FITC-Candida. The cells were then acquired on a Cytoflex flow cytometer.
During data analysis, CD45+ events were first selected to remove Candida-only events. Single cells were then gated on as described above and the percentage of Candida-FITC positive macrophages in each sample was calculated.

Take IL4: recombinant human interleukin 4: in test [1], the “H3K9me3 at TNF (AUC analysis of primer pairs)” value is “a decrease of H3K9me3”. The CD1c expression entry in test [2] (IL4-trained cells vs untrained cells and moDCs) is recorded as “slightly more CD1c than untrained cells, but far less than moDCs”. In addition, in test [2] (IL4 training, day 6), the CD14 expression result was “strong downregulation”, the CD80 expression entry is given as “marginally increased”, the CD200R expression result is “significantly enhanced” and the CD206 expression result is recorded as “significantly enhanced”. Besides, the “phagocytosis of heat-killed Candida albicans” value in test [3] is on record as “slightly less effective at phagocytosing heat-killed Candida albicans than untrained controls”.
